Several values for one entry are separate records, joined by “and”; a condition that tells them apart may be missing. Equal values may be shown once.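 1) Cells in 96-well plates. 2) Compound, 48 h, 5 concentrations. 3) Linear interpolation between surrounding doses. 4) Unreached endpoint = highest concentration. Abbreviation: GI50, concentration required for 50% inhibition of growth. TGI denotes the concentration required for complete inhibition of growth.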

Experiment in all cases: NCI anticancer screen, dose series, 48 h
The test system of test [1] is HOP-92 NSCLC.
Test [2] deals with SR leukemia.
The test system of test [3] is IGROV1 ovarian.
For test [4], the system named is NCI-H226 lung.
For test [5], the system named is CCRF-CEM leukemia.
The test system of test [6] is UO-31 renal.
The subject of test [7] is MOLT-4 leukemia.
In test [8] the test system is NCI-H23 lung.
Test [9] deals with SNB-19 CNS.
In test [10] the test system is HCT-116 colon.

For `CC1(C)N=C(N)N=C(N)N1c1cccc(CCCCOc2ccccc2)c1`, the GI50 in test [1] is 2.26 µM; in test [2], less than 0.011 µM; in test [3], less than 0.0118 µM; in [4] it was 0.801 µM; in [5] it was 0.0414 µM; in test [6] it was 47.2 µM. For the same compound, the GI50 in test [7] is 0.0629 µM; in [8] it was 0.0664 µM; in test [9], 0.326 µM; in test [10], less than 0.01 µM. The TGI in test [1] was 30.3 µM; in test [2], 20.7 µM; in test [3], 15.7 µM; in test [4] it was more than 100 µM; in test [5], 32.7 µM; in test [6] it was more than 100 µM. In addition, the TGI in test [7] was 36.3 µM; in [8] it was 81.4 µM; in test [9], more than 77.4 µM; in test [10] it was more than 100 µM.
Take `CCCc1nc(NC#N)nc(C(=O)NC23CC4CC(CC(C4)C2)C3)c1C`: the TGI in test [1], in test [2], in test [3], in [4], in test [5] and in test [6] was more than 100 µM in each case. Moreover, the TGI in test [7], in [8], in test [9] and in [10] was more than 100 µM throughout.
`CSC1=Nc2c(c(C)c(C)n2COC(CO)CO)C2=NC(=O)CC(C)N12` (centres undefined): the GI50 in test [1] was more than 100 µM; in test [2], more than 100 µM; in [3] it was more than 100 µM; in test [4], more than 100 µM; in test [5], 16.5 µM; in [6] it was more than 100 µM. Also, the GI50 in [7], in [8], in [9] and in test [10] was more than 100 µM each time. Moreover, the TGI in [1] is more than 100 µM; in [2], more than 100 µM; in [3], more than 100 µM; in [4], more than 100 µM; in [5] it was 49.5 µM; in test [6], more than 100 µM. Also, the TGI in test [7], in test [8], in [9] and in test [10] was more than 100 µM throughout.
`O=C(O)CP(=O)(O)O`: the TGI in [1], in [2], in [3], in test [4], in test [5] and in [6] was more than 100 µM in each case. Also, the TGI in [7], in test [8], in test [9] and in test [10] was more than 100 µM in each case.
In the case of `O=C1/C(=C/c2ccccc2F)CN(C(=O)C(Cl)Cl)C/C1=C\c1ccccc1F`, the GI50 is 1.53 µM in test [1]; 0.0665 µM in test [2]; 0.351 µM in [3]; 1.4 µM in test [4]; 0.106 µM in [5]; 0.44 µM in test [6]. Besides, the GI50 in test [7] was 0.329 µM; in test [8] it was 0.389 µM; in test [9], 0.349 µM; in test [10] it was 0.131 µM. In addition, the TGI in [1] was 3.39 µM; in [3], 1.44 µM; in test [4] it was 6.85 µM; in test [5] it was more than 100 µM; in [6], 1.67 µM; in [8] it was 1.56 µM. The results for the TGI in [9] and in test [10] were 1.46 µM and 0.286 µM, respectively.
In the case of `O=NN/C(=C1\Nc2ccc([N+](=O)[O-])cc2NC1=O)C(O)c1ccc([N+](=O)[O-])cc1` (centres undefined), the TGI in test [1], in test [2], in [3], in test [4], in test [5] and in [6] was more than 100 µM each time. Besides, the TGI in test [7], in test [8], in test [9] and in test [10] was more than 100 µM each time.
With `CSc1nc(C)c(Br)c(=O)n1C1OC(COC(C)=O)C(OC(C)=O)C(OC(C)=O)C1OC(C)=O` (centres undefined), the TGI in test [1] was 54.8 µM and 58.1 µM; in [2], more than 100 µM; in test [3] it was > 100 µM and 71.5 µM; in [4], more than 100 µM; in [5], more than 100 µM; in test [6] it was more than 100 µM. Also, the TGI in test [7], in [8], in test [9] and in test [10] was more than 100 µM throughout. The GI50 was > 100 µM and 27.4 µM in [3]; > 100 µM and 36 µM in [4]; > 100 µM and 44.9 µM in [6]; > 100 µM and 47 µM in [8]; 51.8 µM in test [9]; > 88.4 µM and 35 µM in test [10].
Regarding `O=C1CCC(N2Cc3c(C#CCCCNC(=O)c4cc5c(o4)C(=O)c4ccccc4C5=O)cccc3C2=O)C(=O)N1` (centres undefined), the GI50 in [1] was 9.07 µM; in test [2], 3.15 µM; in [3] it was 4.03 µM; in test [4] it was 12.5 µM; in [5], 4.42 µM; in test [6] it was 14 µM. Further, the GI50 in test [7] was 3.08 µM; in test [8], 1.58 µM; in test [9] it was 2.65 µM; in test [10], 3.09 µM. Also, the TGI amounted to 26 µM in [1]; 14.5 µM in test [2]; 17.2 µM in test [3]; 30.2 µM in [4]; 55.4 µM in [5]; 36.1 µM in test [6]. The TGI in test [7] was found to be 12.5 µM; in [8], 4.44 µM; in test [9], 8.35 µM; in test [10] it was 10.3 µM.
With H-HIIKKIRTWYRKAWHVLGKV-NH2, the GI50 in [1] is 2.11 µM; in [2] it was 7.13 µM; in test [3], 4.32 µM; in [4], 4.15 µM; in [5], 3.71 µM; in [6], 18.6 µM. Besides, the GI50 was 14.2 µM in test [7], 4.94 µM in [8], 18.3 µM in [9] and 17.5 µM in [10]. In addition, the TGI in [1] is 6.75 µM; in test [2], 87.8 µM; in [3] it was 28.3 µM; in [4], 39.2 µM; in test [5], more than 100 µM; in test [6], 36.5 µM. Further, the TGI in test [7] was determined as 57.2 µM; in [8], 31.1 µM; in test [9] it was 62 µM; in [10] it was 42 µM.

The record behind these values is PubChem BioAssay (NCI).
